Test results: ChEMBL document CHEMBL6115036, “Exploration of membrane-active cephalosporin derivatives as potent antibacterial agents against Staphylococcus aureus biofilms and persisters” (Eur J Med Chem, 2025)
Converted amounts (≈) assume the structure as drawn. The source made the active and inactive calls. The calls are words filed in the database; no cut-off is given here.

Columns and labels:
Staphylococcus aureus [1] = assay: Antibacterial activity against Staphylococcus aureus infected in Kunming mouse model of subcutaneous abscess assessed as surviving bacteria in skin tissue at 10 mg/kg, sc measured after 48 hrs relative to control; format: functional
Staphylococcus aureus [2] = assay: Antibacterial activity against Staphylococcus aureus infected in Kunming mouse model of subcutaneous abscess assessed as reduction in bacterial load in skin tissue at 10 mg/kg, sc measured after 48 hrs relative to control; format: functional; parameters: scale not given: the % may be the effect or the level left
Staphylococcus aureus [3] = assay: Antibacterial activity against Staphylococcus aureus infected in Kunming mouse model of subcutaneous abscess assessed as reduction in number of bacteria in skin tissue at 5 to 10 mg/kg, sc measured after 48 hrs; format: functional, organism-based; details: dose 5-10 mg/kg
Staphylococcus aureus [4] = assay: Inhibition of biofilm formation in Staphylococcus aureus assessed as reduction in number of live bacterial count at 16 times MIC incubated for 24 hrs; format: functional
Staphylococcus aureus [5] = assay: Inhibition of biofilm formation in Staphylococcus aureus at 16 times MIC incubated for 24 hrs; format: functional, organism-based
Enterococcus faecalis = assay: Antimicrobial activity against Enterococcus faecalis incubated for 16 to 18 hrs by broth dilution assay; format: functional; details: time 16-18 hrs
Staphylococcus aureus [6] = assay: Antimicrobial activity against Staphylococcus aureus incubated for 16 to 18 hrs by broth dilution assay; format: functional; details: time 16-18 hrs
[7] = system: Stenotrophomonas maltophilia; assay: Antimicrobial activity against Stenotrophomonas maltophilia incubated for 16 to 18 hrs by broth dilution assay; format: functional; details: time 16-18 hrs
Escherichia coli = assay: Antimicrobial activity against Escherichia coli incubated for 16 to 18 hrs by broth dilution assay; format: functional; details: time 16-18 hrs
[8] = Hemolytic activity in sheep red blood cells incubated for 1 hr; format: toxicity, cell-based, Ovis aries, Erythrocyte
Staphylococcus aureus [9] = assay: Induction of cytoplasmic membrane depolarization in Staphylococcus aureus assessed as increase in fluorescence intensity at 32 ug/ml measured for 20 mins by DiSC3(5) dye based analysis; format: functional, organism-based; details: dose 32.0 µg/ml
Staphylococcus aureus [10] = assay: Induction of inner membrane permeability in Staphylococcus aureus assessed as increase in fluorescence intensity at 32 ug/ml measured for 20 mins by PI dye based analysis; format: functional, organism-based; details: dose 32.0 µg/ml
Staphylococcus aureus [11] = assay: Disruption of cell membrane in Staphylococcus aureus assessed as nucleic acid leakage measured after 2 hrs by fluorescence based analysis; format: functional, organism-based; details: dose 8-32 µg/ml
Staphylococcus aureus [12] = assay: Disruption of cell membrane in Staphylococcus aureus assessed as protein leakage measured after 2 hrs by fluorescence based analysis; format: functional, organism-based; details: dose 8-32 µg/ml
Staphylococcus aureus [13] = assay: Bactericidal activity against Staphylococcus aureus assessed as reduction in bacterial colony count at 4 to 8 times MIC incubated for 8 hrs by time kill assay; format: functional, organism-based
Staphylococcus aureus [14] = assay: Antibacterial activity against Staphylococcus aureus in presence of 50% sheep plasma; format: functional, organism-based
Staphylococcus aureus [15] = assay: Antibacterial activity against Staphylococcus aureus in presence of 50% FBS; format: functional, organism-based
Staphylococcus aureus [16] = assay: Bactericidal activity against Staphylococcus aureus measured for 3 to 6 hrs in presence of 50% sheep plasma; format: functional, organism-based; details: time 3-6 hrs
Staphylococcus aureus [17] = assay: Induction of resistance development in Staphylococcus aureus at sub-MIC measured after 20 passages; format: functional, organism-based
Staphylococcus aureus [18] = assay: Induction of resistance development in drug-resistant Staphylococcus aureus at sub-MIC measured after 20 passages in presence of norfloxacin; format: functional, organism-based
Staphylococcus aureus [19] = assay: Induction of resistance development in drug-resistant Staphylococcus aureus at sub-MIC measured after 20 passages in presence of ciprofloxacin; format: functional, organism-based
Staphylococcus aureus [20] = assay: Induction of resistance development in drug-resistant Staphylococcus aureus at sub-MIC measured after 20 passages in presence of levofloxacin; format: functional, organism-based
Staphylococcus aureus [21] = assay: Induction of resistance development in drug-resistant Staphylococcus aureus at sub-MIC measured after 20 passages in presence of linezolid; format: functional, organism-based
Staphylococcus aureus [22] = assay: Induction of resistance development in drug-resistant Staphylococcus aureus at sub-MIC measured after 20 passages in presence of rifampicin; format: functional, organism-based
Staphylococcus aureus [23] = assay: Induction of resistance development in drug-resistant Staphylococcus aureus at sub-MIC measured after 20 passages in presence of vancomycin; format: functional, organism-based
Staphylococcus aureus [24] = assay: Induction of resistance development in drug-resistant Staphylococcus aureus at sub-MIC measured after 20 passages in presence of cefuroxime sodium; format: functional, organism-based
Staphylococcus aureus [25] = assay: Induction of resistance development in drug-resistant Staphylococcus aureus at sub-MIC measured after 20 passages in presence of ampicillin sodium; format: functional, organism-based
Staphylococcus aureus [26] = assay: Inhibition of metabolic activity in Staphylococcus aureus incubated for 6 hrs by Alamar blue assay; format: functional, organism-based
Staphylococcus aureus [27] = assay: Induction of intracellular ROS accumulation in Staphylococcus aureus incubated overnight by DCFH-DA dye based analysis; format: functional, organism-based
Staphylococcus aureus [28] = assay: Antibacterial activity against Staphylococcus aureus assessed as inhibition of bacterial growth at stationary phase at 32 times MIC incubated for 4 hrs; format: functional, organism-based
Staphylococcus aureus [29] = assay: Antibacterial activity against rifampicin-induced persistant Staphylococcus aureus assessed as decrease in CFU at 16 times MIC measured for 10 hrs; format: functional
Staphylococcus aureus [30] = assay: Bactericidal activity against rifampicin-induced persistant Staphylococcus aureus at 32 times MIC measured for 10 hrs; format: functional, organism-based
Staphylococcus aureus [31] = assay: Inhibition of biofilm formation in Staphylococcus aureus assessed as decrease in bacterial count at 32 times MIC incubated for 24 hrs by CLSM analysis; format: functional, organism-based
Staphylococcus aureus [32] = assay: Inhibition of biofilm formation in Staphylococcus aureus assessed as punctate distribution at 32 times MIC incubated for 24 hrs by CLSM analysis; format: functional, organism-based
[33] = Cytotoxicity against human HeLa cells incubated for 24 hrs by CCK8 assay; format: toxicity, cell-based
[34] = Cytotoxicity against HUVEC cells incubated for 24 hrs by CCK8 assay; format: toxicity, cell-based; details: human
Staphylococcus aureus [35] = assay: Antibacterial activity against Staphylococcus aureus infected in Kunming mouse model of subcutaneous abscess assessed as decrease in neutrophil level in skin tissue at 5 mg/kg, sc measured after 48 hrs by H and E staining based analysis; format: functional, organism-based
Staphylococcus aureus [36] = assay: Antibacterial activity against Staphylococcus aureus infected in Kunming mouse model of subcutaneous abscess assessed as decrease in inflammation in skin tissue at 5 mg/kg, sc measured after 48 hrs by H and E staining based analysis; format: functional, organism-based
[37] = Toxicity in Kunming mouse model of subcutaneous abscess infected with Staphylococcus aureus assessed as damage in heart at 5 to 10 mg/kg, sc measured after 48 hrs by H and E staining based analysis; format: organism-based; details: in vivo, dose 5-10 mg/kg
[38] = Toxicity in Kunming mouse model of subcutaneous abscess infected with Staphylococcus aureus assessed as damage in liver at 5 to 10 mg/kg, sc measured after 48 hrs by H and E staining based analysis; format: organism-based; details: in vivo, dose 5-10 mg/kg
[39] = Toxicity in Kunming mouse model of subcutaneous abscess infected with Staphylococcus aureus assessed as damage in spleen at 5 to 10 mg/kg, sc measured after 48 hrs by H and E staining based analysis; format: organism-based; details: in vivo, dose 5-10 mg/kg
[40] = Toxicity in Kunming mouse model of subcutaneous abscess infected with Staphylococcus aureus assessed as damage in lung at 5 to 10 mg/kg, sc measured after 48 hrs by H and E staining based analysis; format: organism-based; details: in vivo, dose 5-10 mg/kg
[41] = Toxicity in Kunming mouse model of subcutaneous abscess infected with Staphylococcus aureus assessed as damage in kidney at 5 to 10 mg/kg, sc measured after 48 hrs by H and E staining based analysis; format: organism-based; details: in vivo, dose 5-10 mg/kg
[42] = Toxicity in Kunming mouse model of subcutaneous abscess infected with Staphylococcus aureus assessed as histopathological abnormalities in heart at 5 to 10 mg/kg, sc measured after 48 hrs by H and E staining based analysis; format: organism-based; details: in vivo, dose 5-10 mg/kg
[43] = Toxicity in Kunming mouse model of subcutaneous abscess infected with Staphylococcus aureus assessed as histopathological abnormalities in liver at 5 to 10 mg/kg, sc measured after 48 hrs by H and E staining based analysis; format: organism-based; details: in vivo, dose 5-10 mg/kg
[44] = Toxicity in Kunming mouse model of subcutaneous abscess infected with Staphylococcus aureus assessed as histopathological abnormalities in spleen at 5 to 10 mg/kg, sc measured after 48 hrs by H and E staining based analysis; format: organism-based; details: in vivo, dose 5-10 mg/kg
[45] = Toxicity in Kunming mouse model of subcutaneous abscess infected with Staphylococcus aureus assessed as histopathological abnormalities in lung at 5 to 10 mg/kg, sc measured after 48 hrs by H and E staining based analysis; format: organism-based; details: in vivo, dose 5-10 mg/kg
[46] = Toxicity in Kunming mouse model of subcutaneous abscess infected with Staphylococcus aureus assessed as histopathological abnormalities in kidney at 5 to 10 mg/kg, sc measured after 48 hrs by H and E staining based analysis; format: organism-based; details: in vivo, dose 5-10 mg/kg
Staphylococcus aureus [47] = assay: Disruption of cell membrane in Staphylococcus aureus assessed as nucleic acid leakage at 32 ug/ml measured after 2 hrs by fluorescence based analysis; format: functional, organism-based; details: dose 32.0 µg/ml
Staphylococcus aureus [48] = assay: Disruption of cell membrane in Staphylococcus aureus assessed as protein leakage at 32 ug/ml measured after 2 hrs by fluorescence based analysis; format: functional, organism-based; details: dose 32.0 µg/ml
Staphylococcus aureus [49] = assay: Induction of intracellular ROS accumulation in Staphylococcus aureus at 1 to 4 times MIC incubated overnight by DCFH-DA dye based analysis; format: functional, organism-based
Staphylococcus aureus [50] = assay: Antibacterial activity against Staphylococcus aureus assessed as effect on quiescent cells at 100 to 200 times MIC incubated for 24 hrs; format: functional, organism-based
Staphylococcus aureus [51] = assay: Antibacterial activity against rifampicin-induced persistant Staphylococcus aureus assessed as decrease in CFU at 100 times MIC measured for 10 hrs; format: functional, organism-based
Staphylococcus aureus [52] = assay: Antibacterial activity against Staphylococcus aureus infected in Kunming mouse model of subcutaneous abscess assessed as bacterial count in skin tissue at 10 mg/kg, sc measured after 48 hrs; format: functional

## CCCCCCCCCCCCCCCC[n+]1ccc(-c2cc[n+](CC3=C(C(=O)[O-])N4C(=O)[C@@H](NC(=O)Cc5ccccc5)[C@H]4SC3)cc2)cc1.O=C([O-])C(F)(F)F
Staphylococcus aureus [1]
  Activity: 0.13%
Staphylococcus aureus [2]
  Activity: 99.87%
Staphylococcus aureus [3]
  Activity: Active
Staphylococcus aureus [4]
  Activity: ~1 10^8CFU/ml
Staphylococcus aureus [5]
  inhibition: Active; Compound Activity Better Than Vancomycin, Rifampicin And Cephalothin
Enterococcus faecalis
  MIC: 32 µg/mL
Staphylococcus aureus [6]
  MIC: 4 µg/mL
[7]
  MIC: 128 µg/mL
Escherichia coli
  MIC: 128 µg/mL
[8]
  HC50 at 1 h: 112 µg/mL
Staphylococcus aureus [9]
  Activity: Active
Staphylococcus aureus [10]
  Activity: Active
Staphylococcus aureus [11]
  Activity: Dose-dependent-effect
Staphylococcus aureus [12]
  Activity: Dose-dependent-effect
Staphylococcus aureus [13]
  Activity: Active
Staphylococcus aureus [14]
  Activity: Active; Mic Value Of Compound In Plasma Was Equal To Mic In Mhb Medium
Staphylococcus aureus [15]
  Activity: Active; Mic Value Of Compound In Serum Was Equal To Mic In Mhb Medium
Staphylococcus aureus [16]
  Activity: Active
Staphylococcus aureus [17]
  Activity: inactive
Staphylococcus aureus [18]
  Activity: inactive
Staphylococcus aureus [19]
  Activity: inactive
Staphylococcus aureus [20]
  Activity: inactive
Staphylococcus aureus [21]
  Activity: inactive
Staphylococcus aureus [22]
  Activity: inactive
Staphylococcus aureus [23]
  Activity: inactive
Staphylococcus aureus [24]
  Activity: inactive
Staphylococcus aureus [25]
  Activity: inactive
Staphylococcus aureus [26]
  inhibition: Dose-dependent-effect
Staphylococcus aureus [27]
  Activity: Dose-dependent-effect
Staphylococcus aureus [28]
  inhibition: Active
Staphylococcus aureus [29]
  Activity: ~1 10^5CFU/ml
Staphylococcus aureus [30]
  Activity: Active
Staphylococcus aureus [31]
  inhibition: Active
Staphylococcus aureus [32]
  inhibition: Active
[33]
  CC50 at 24 h: 34.7 µg/mL
[34]
  CC50 at 24 h: 15.7 µg/mL
Staphylococcus aureus [35]
  Activity: Active
Staphylococcus aureus [36]
  Activity: Active
[37]
  Activity: Non-toxic
[38]
  Activity: Non-toxic
[39]
  Activity: Non-toxic
[40]
  Activity: Non-toxic
[41]
  Activity: Non-toxic
[42]
  Activity: Non-toxic
[43]
  Activity: Non-toxic
[44]
  Activity: Non-toxic
[45]
  Activity: Non-toxic
[46]
  Activity: Non-toxic

## CC(=O)OCC1=C(C(=O)O)N2C(=O)[C@@H](NC(=O)Cc3cccs3)[C@H]2SC1 [CEPHALOTHIN]
Staphylococcus aureus [2]
  Activity: 54%
Enterococcus faecalis
  MIC: 32 µg/mL (≈ 80.7 µM)
Staphylococcus aureus [6]
  MIC: 0.25 µg/mL (≈ 0.631 µM)
[7]
  MIC: 16 µg/mL (≈ 40.4 µM)
Escherichia coli
  MIC: 16 µg/mL (≈ 40.4 µM)
[8]
  HC50 at 1 h: > 1280 µg/mL
Staphylococcus aureus [47]
  Activity: inactive
Staphylococcus aureus [48]
  Activity: inactive
Staphylococcus aureus [14]
  Activity: Active; Mic Value Of Compound In Plasma Was Equal To Mic In Mhb Medium
Staphylococcus aureus [15]
  Activity: Active; Mic Value Of Compound In Serum Was Equal To Mic In Mhb Medium
Staphylococcus aureus [16]
  Activity: Active
Staphylococcus aureus [17]
  Activity: inactive
Staphylococcus aureus [18]
  Activity: inactive
Staphylococcus aureus [19]
  Activity: inactive
Staphylococcus aureus [20]
  Activity: inactive
Staphylococcus aureus [21]
  Activity: inactive
Staphylococcus aureus [22]
  Activity: inactive
Staphylococcus aureus [23]
  Activity: inactive
Staphylococcus aureus [24]
  Activity: inactive
Staphylococcus aureus [25]
  Activity: inactive
Staphylococcus aureus [49]
  Activity: inactive
Staphylococcus aureus [50]
  Activity: inactive
Staphylococcus aureus [51]
  Activity: inactive
Staphylococcus aureus [31]
  inhibition: inactive
Staphylococcus aureus [52]
  Activity: ~2 10^7CFU/ml
